Drawing on ChEMBL document CHEMBL2331426, “A formyl peptide substituted with a conformationally constrained phenylalanine residue evokes a selective immune response in human neutrophils” (Bioorg Med Chem, 2013), this text covers Activity and EC50 for 6 compounds.

For experiment [1], the target named is T1, N-formyl peptide receptor 2 (Homo sapiens) (UniProt P25090).
T1 sequence (whole entry): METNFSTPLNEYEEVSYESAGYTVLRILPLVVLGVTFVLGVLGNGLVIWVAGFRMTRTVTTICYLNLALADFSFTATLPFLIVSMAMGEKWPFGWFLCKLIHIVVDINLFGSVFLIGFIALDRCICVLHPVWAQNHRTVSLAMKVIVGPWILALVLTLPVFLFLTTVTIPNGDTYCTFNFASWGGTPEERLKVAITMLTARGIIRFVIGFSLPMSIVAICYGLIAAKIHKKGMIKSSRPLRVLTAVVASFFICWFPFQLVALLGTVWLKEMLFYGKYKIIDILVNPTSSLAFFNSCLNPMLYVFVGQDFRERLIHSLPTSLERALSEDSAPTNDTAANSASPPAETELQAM
The experiment in a line: Binding affinity to FPR2 receptor in human neutrophils assessed as induction of intracellular calcium mobilization at 1 uM in presence of MMK-1. It is filed as functional, cell-based. In general terms: Calcium flux is commonly read through the fluorescence of an indicator in the cells.

For experiment [2], the target named is T2, fMet-Leu-Phe receptor 1/2 (Homo sapiens) (UniProt P21462+P25090). Kind of experiment: Agonist activity at FPR1/FPR2 receptor in human neutrophils assessed as stimulation of fMLP-OMe-induced superoxide radical generation at 0.1 uM incubated for 5 mins followed by fMLP-OMe induction by spectrophotometric analysis relative to control.
Experiment [3] deals with T2, fMet-Leu-Phe receptor 1/2 (Homo sapiens). Kind of experiment: Agonist activity at FPR1/FPR2 receptor in human neutrophils assessed as induction of superoxide radical generation at 1 uM by […] spectrophotometric analysis relative to fMLP-OMe.
Experiment [4] concerns the target T3, fMet-Leu-Phe receptor 1/2 (Homo sapiens, UniProt P21462+P25090).
T3 sequence (P21462 whole entry): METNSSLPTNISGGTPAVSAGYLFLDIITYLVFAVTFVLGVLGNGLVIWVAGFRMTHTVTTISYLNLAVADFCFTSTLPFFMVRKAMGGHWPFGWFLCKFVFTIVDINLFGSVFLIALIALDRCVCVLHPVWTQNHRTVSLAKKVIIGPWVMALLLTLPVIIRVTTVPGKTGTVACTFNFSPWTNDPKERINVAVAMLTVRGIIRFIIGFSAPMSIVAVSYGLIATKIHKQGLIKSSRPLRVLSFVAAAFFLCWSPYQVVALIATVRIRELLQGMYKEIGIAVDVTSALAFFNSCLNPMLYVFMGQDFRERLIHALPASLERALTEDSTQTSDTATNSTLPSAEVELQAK
T3 sequence (P25090 whole entry): T1 sequence (whole entry)
The experiment in a line: Agonist activity at FPR1/FPR2 receptor in human neutrophils assessed as induction of superoxide radical generation by spectrophotometric analysis.

Experiment [5] deals with T2, fMet-Leu-Phe receptor 1/2 (Homo sapiens). Kind of experiment: Agonist activity at FPR1/FPR2 receptor in human neutrophils assessed as induction of chemotaxis after 60 mins relative to fMLP-OMe.
Experiment [6] has as its target T3, fMet-Leu-Phe receptor 1/2. The experiment in a line: Agonist activity at FPR1/FPR2 receptor in human neutrophils assessed as induction of chemotaxis after 60 mins.
For experiment [7], the target named is T2, fMet-Leu-Phe receptor 1/2 (Homo sapiens). Kind of experiment: Agonist activity at FPR1/FPR2 receptor in human neutrophils assessed as increase in intracellular calcium concentration at 0.1 uM by Fura-2-based spectrofluorophotometric analysis. It is filed as functional, cell-based.
For experiment [8] the target is unchanged. Kind of experiment: Agonist activity at FPR1/FPR2 receptor in human neutrophils assessed as induction of superoxide radical generation at 1 uM by spectrophotometric analysis.
Experiment [9] has the same target. The experiment in a line: Agonist activity at FPR1/FPR2 receptor in human neutrophils assessed as increase in intracellular calcium concentration by spectrofluorophotometric analysis. It is filed as functional, cell-based.

Active and inactive are the calls of the source. No cut-off for these calls is given here.

Broadly, the EC50 is the concentration needed to bring the measured effect to its halfway point. `CSCC[C@H](NC=O)C(=O)N[C@@H](CC(C)C)C(=O)N[C@]1(C(=O)O)C[C@@H]1c1ccccc1`: the result in [1] and in experiment [7] was Active. The Activity was determined as 200% in [2], 6.4% in experiment [3] and 26% in experiment [5]. Also, the EC50 in experiment [4] is 0.25 µM; in experiment [6], 0.0091 µM.
`COC(=O)[C@@]1(NC(=O)[C@H](CC(C)C)NC(=O)[C@H](CCSC)NC=O)C[C@H]1c1ccccc1`: the result in experiment [1] was inactive. The Activity in experiment [2] came out at 114%; in [8], 10%; in [5], 53%. The half-maximal effective concentration (EC50) in experiment [6] is 0.0047 µM. In addition, in [7], the outcome was Active.
Regarding `COC(=O)[C@]1(NC(=O)[C@H](CC(C)C)NC(=O)[C@H](CCSC)NC=O)C[C@@H]1c1ccccc1`, the result in experiment [1] was inactive. Also, the Activity in experiment [2] is 114%; in experiment [8] it was 10%; in experiment [5], 18%. The EC50 in experiment [6] amounted to 0.014 µM. Besides, in [7], the result was Active.
For the compound `COC(=O)[C@H](Cc1ccccc1)NC(=O)[C@H](CC(C)C)NC(=O)[C@H](CCSC)NC=O`, the results for the concentration giving a half-maximal response (EC50) in [4] and in experiment [6] were 0.016 µM and 0.0025 µM, respectively. The result in experiment [7] was Active.
Turning to `CSCC[C@H](NC(=O)[C@H](Cc1ccc(O)cc1)NC(=O)[C@H](CCCCN)NC(=O)[C@@H](N)Cc1c[nH]c2ccccc12)C(=O)N[C@H](C(=O)N[C@H](CCSC)C(=O)O)C(C)C`, the result in [9] was Active.
Regarding `COC(=O)[C@]1(NC(=O)[C@H](CC(C)C)NC(=O)[C@H](CCSC)NC=O)C[C@H]1c1ccccc1`, the outcome in experiment [1] and in [7] was Active. Besides, the Activity in experiment [2] came to 175%; in experiment [3] it was 45%; in experiment [8] it was 10%; in [5], 12%. Also, in experiment [6], the EC50 was found to be 0.021 µM.
